Assay results from patent US7846959B2, “Raf modulators and methods of use” (Exelixis, Inc., priority 2004, dated 2010).

Tests used:
[1] = molecular target: c-Raf (Homo sapiens, UniProt P04049); experiment: Luciferase-coupled chemiluminescence kinase assay (ATP consumption), c-Raf; type: biochemical; settings: read-out: cRaf-1 IC50
In short: (§1)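 ATP depletion, limited to 25-60%, read by luciferase-luciferin chemiluminescence gives IC50 values. Before the 3 hr ambient-temperature kinase reaction with ATP, compound and […] enzyme were preincubated 30 minutes at room temperature in Tris pH 7.5 buffer with MgCl2, TX-100 and DTT.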

[2] = molecular target: B-Raf (Homo sapiens, UniProt P15056); experiment: Luciferase-coupled chemiluminescence kinase assay (ATP consumption), B-Raf; type: biochemical; settings: read-out: bRaf IC50
In short: as §1

Sequence of B-Raf (P15056 whole entry): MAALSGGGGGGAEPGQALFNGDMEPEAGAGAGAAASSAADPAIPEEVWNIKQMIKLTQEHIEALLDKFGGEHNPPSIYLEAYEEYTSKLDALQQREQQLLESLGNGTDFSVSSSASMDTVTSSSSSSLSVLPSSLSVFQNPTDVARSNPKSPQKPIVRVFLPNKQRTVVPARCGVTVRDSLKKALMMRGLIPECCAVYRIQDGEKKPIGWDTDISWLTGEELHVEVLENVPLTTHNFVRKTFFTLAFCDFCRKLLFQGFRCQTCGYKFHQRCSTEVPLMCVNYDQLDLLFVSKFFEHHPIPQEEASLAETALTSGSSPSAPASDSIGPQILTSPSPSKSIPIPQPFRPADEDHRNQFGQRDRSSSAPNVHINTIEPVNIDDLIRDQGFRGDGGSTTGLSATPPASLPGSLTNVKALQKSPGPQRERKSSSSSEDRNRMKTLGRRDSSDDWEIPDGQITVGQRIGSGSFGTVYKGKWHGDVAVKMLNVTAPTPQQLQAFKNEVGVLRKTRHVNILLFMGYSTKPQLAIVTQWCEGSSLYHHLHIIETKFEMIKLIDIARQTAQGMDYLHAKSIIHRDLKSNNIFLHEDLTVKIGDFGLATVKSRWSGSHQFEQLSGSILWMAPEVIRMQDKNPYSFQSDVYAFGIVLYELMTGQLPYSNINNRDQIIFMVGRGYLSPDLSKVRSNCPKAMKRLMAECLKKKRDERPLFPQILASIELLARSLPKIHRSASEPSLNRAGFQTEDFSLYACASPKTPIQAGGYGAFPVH
Sequence of c-Raf (P04049 whole entry): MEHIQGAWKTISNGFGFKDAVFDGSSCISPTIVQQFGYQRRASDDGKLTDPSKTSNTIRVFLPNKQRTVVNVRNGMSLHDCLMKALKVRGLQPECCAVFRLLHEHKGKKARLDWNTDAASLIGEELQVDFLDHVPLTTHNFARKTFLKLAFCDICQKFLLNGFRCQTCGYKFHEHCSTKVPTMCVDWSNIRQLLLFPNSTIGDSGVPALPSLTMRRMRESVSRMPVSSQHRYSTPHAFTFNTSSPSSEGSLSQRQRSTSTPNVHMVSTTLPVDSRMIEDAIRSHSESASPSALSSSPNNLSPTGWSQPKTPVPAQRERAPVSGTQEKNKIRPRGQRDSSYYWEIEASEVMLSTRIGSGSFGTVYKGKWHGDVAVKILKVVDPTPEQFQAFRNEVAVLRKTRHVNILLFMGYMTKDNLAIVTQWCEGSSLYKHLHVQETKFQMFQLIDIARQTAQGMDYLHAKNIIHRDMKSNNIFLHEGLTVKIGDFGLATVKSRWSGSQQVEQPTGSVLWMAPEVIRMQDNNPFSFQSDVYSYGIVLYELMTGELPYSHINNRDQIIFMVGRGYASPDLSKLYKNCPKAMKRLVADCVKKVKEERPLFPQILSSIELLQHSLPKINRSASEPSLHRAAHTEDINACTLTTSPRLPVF

## COC(=O)Nc1nc2cc(C3(O)c4ccccc4C(=O)N3C(C)c3cc(F)cc(F)c3)ccc2[nH]1 (stereo not drawn) [Entry 165, methyl (5-{2-[1-(3,5-difluorophenyl)ethyl]-1-hydroxy-3-oxo-2,3-dihydro-1H-isoindol-1-yl}-1H-benzimidazol-2-yl)carbamate]
[1]
  IC50: 0.1 to 1 µM
[2]
  IC50: 1 to 10 µM

## COC(=O)Nc1nc2cc(C3(O)c4ccccc4C(=O)N3C(C)c3cccc(F)c3)ccc2[nH]1 (stereo not drawn) [Entry 166, methyl (5-{2-[1-(3-fluorophenyl)ethyl]-1-hydroxy-3-oxo-2,3-dihydro-1H-isoindol-1-yl}-1H-benzimidazol-2-yl)carbamate]
[1]
  IC50: 0.1 to 1 µM
[2]
  IC50: < 0.1 µM

## COC(=O)Nc1nc2cc(C3(O)c4ccccc4C(=O)N3C3CCCCC3)ccc2[nH]1 (stereo not drawn) [Entry 167, methyl [5-(2-cyclohexyl-1-hydroxy-3-oxo-2,3-dihydro-1H-isoindol-1-yl)-1H-benzimidazol-2-yl]carbamate]
[1]
  IC50: < 0.1 µM
[2]
  IC50: < 0.1 µM

## COC(=O)Nc1nc2cc(C3(O)c4ccccc4C(=O)N3c3cc(F)ccc3F)ccc2[nH]1 (stereo not drawn) [Entry 168, methyl {5-[2-(2,5-difluorophenyl)-1-hydroxy-3-oxo-2,3-dihydro-1H-isoindol-1-yl]-1H-benzimidazol-2-yl}carbamate]
[1]
  IC50: < 0.1 µM
[2]
  IC50: < 0.1 µM

## O=C(NCc1ccccc1)Nc1nc2cc(C3(O)c4ccccc4C(=O)N3Cc3ccccc3)ccc2[nH]1 (stereo not drawn) [Entry 169, N-{5-[1-hydroxy-3-oxo-2-(phenylmethyl)-2,3-dihydro-1H-isoindol-1-yl]-1H-benzimidazol-2-yl}-N′-(phenylmethyl)urea]
[1]
  IC50: < 0.1 µM
[2]
  IC50: < 0.1 µM

## O=C(Nc1nc2cc(C3(O)c4ccccc4C(=O)N3Cc3ccccc3)ccc2[nH]1)OC1CCNCC1 (stereo not drawn) [Entry 170, piperidin-4-yl {5-[1-hydroxy-3-oxo-2-(phenylmethyl)-2,3-dihydro-1H-isoindol-1-yl]-1H-benzimidazol-2-yl}carbamate]
[1]
  IC50: < 0.1 µM
[2]
  IC50: < 0.1 µM

## CNC(=O)Nc1nc2cc(C3(O)c4ccccc4C(=O)N3Cc3ccccc3)ccc2[nH]1 (stereo not drawn) [Entry 171, N-{5-[1-hydroxy-3-oxo-2-(phenylmethyl)-2,3-dihydro-1H-isoindol-1-yl]-1H-benzimidazol-2-yl}-N′-methylurea]
[1]
  IC50: < 0.1 µM
[2]
  IC50: < 0.1 µM

## COC(=O)Nc1nc2cc(C3(O)c4ccccc4C(=O)N3C(C)c3ccccc3F)ccc2[nH]1 (stereo not drawn) [Entry 172, methyl (5-{2-[1-(2-fluorophenyl)ethyl]-1-hydroxy-3-oxo-2,3-dihydro-1H-isoindol-1-yl}-1H-benzimidazol-2-yl)carbamate]
[1]
  IC50: 1 to 10 µM
[2]
  IC50: 1 to 10 µM

## COC(=O)Nc1nc2cc(C3(O)c4ccccc4C(=O)N3C(C)c3cccs3)ccc2[nH]1 (stereo not drawn) [Entry 173, methyl (5-{1-hydroxy-3-oxo-2-[1-(2-thienyl)ethyl]-2,3-dihydro-1H-isoindol-1-yl}-1H-benzimidazol-2-yl)carbamate]
[1]
  IC50: < 0.1 µM
[2]
  IC50: < 0.1 µM

## COC(=O)Nc1nc2cc(C3(O)c4ccccc4C(=O)N3C(C)c3cccc(Cl)c3)ccc2[nH]1 (stereo not drawn) [Entry 174, methyl (5-{2-[1-(3-chlorophenyl)ethyl]-1-hydroxy-3-oxo-2,3-dihydro-1H-isoindol-1-yl}-1H-benzimidazol-2-yl)carbamate]
[1]
  IC50: 0.1 to 1 µM
[2]
  IC50: < 0.1 µM

## COC(=O)Nc1nc2cc(C3(O)c4ccccc4C(=O)N3c3cc(C)cc(C(F)(F)F)c3)ccc2[nH]1 (stereo not drawn) [Entry 175, methyl (5-{1-hydroxy-2-[3-methyl-5-(trifluoromethyl)phenyl]-3-oxo-2,3-dihydro-1H-isoindol-1-yl}-1H-benzimidazol-2-yl)carbamate]
[1]
  IC50: < 0.1 µM
[2]
  IC50: < 0.1 µM

## CCC(=O)Nc1nc2cc(C3(O)c4ccccc4C(=O)N3Cc3ccccc3)ccc2[nH]1 (stereo not drawn) [Entry 176, N-{5-[1-hydroxy-3-oxo-2-(phenylmethyl)-2,3-dihydro-1H-isoindol-1-yl]-1H-benzimidazol-2-yl}propanamide]
[1]
  IC50: < 0.1 µM
[2]
  IC50: < 0.1 µM

## COC(=O)Nc1nc2cc(C3(O)c4ccccc4C(=O)N3c3ccc(Cl)c(Cl)c3)ccc2[nH]1 (stereo not drawn) [Entry 177, methyl {5-[2-(3,4-dichlorophenyl)-1-hydroxy-3-oxo-2,3-dihydro-1H-isoindol-1-yl]-1H-benzimidazol-2-yl}carbamate]
[1]
  IC50: < 0.1 µM
[2]
  IC50: < 0.1 µM

## CCc1cccc(N2C(=O)c3ccccc3C2(O)c2ccc3[nH]c(NC(=O)OC)nc3c2)c1 (stereo not drawn) [Entry 178, methyl {5-[2-(3-ethylphenyl)-1-hydroxy-3-oxo-2,3-dihydro-1H-isoindol-1-yl]-1H-benzimidazol-2-yl}carbamate]
[1]
  IC50: < 0.1 µM
[2]
  IC50: < 0.1 µM

## C#Cc1cccc(N2C(=O)c3ccccc3C2(O)c2ccc3[nH]c(NC(=O)OC)nc3c2)c1 (stereo not drawn) [Entry 179, methyl {5-[2-(3-ethynylphenyl)-1-hydroxy-3-oxo-2,3-dihydro-1H-isoindol-1-yl]-1H-benzimidazol-2-yl}carbamate]
[1]
  IC50: < 0.1 µM
[2]
  IC50: < 0.1 µM

## COC(=O)Nc1nc2cc(C3(O)c4ccccc4C(=O)N3c3ccc(Cl)c(C)c3)ccc2[nH]1 (stereo not drawn) [Entry 180, methyl {5-[2-(4-chloro-3-methylphenyl)-1-hydroxy-3-oxo-2,3-dihydro-1H-isoindol-1-yl]-1H-benzimidazol-2-yl}carbamate]
[1]
  IC50: < 0.1 µM
[2]
  IC50: < 0.1 µM

## COC(=O)Nc1nc2cc(C3(O)c4ccccc4C(=O)N3C(C)c3cccc(C(F)(F)F)c3)ccc2[nH]1 (stereo not drawn) [Entry 181, methyl [5-(1-hydroxy-3-oxo-2-{1-[3-(trifluoromethyl)phenyl]ethyl}-2,3-dihydro-1H-isoindol-1-yl)-1H-benzimidazol-2-yl]carbamate]
[1]
  IC50: 1 to 10 µM
[2]
  IC50: 1 to 10 µM

## CC[C@H](c1ccccc1)N1C(=O)c2ccccc2C1(O)c1ccc2[nH]c(NC(=O)OC)nc2c1 (stereo partly drawn) [Entry 182, methyl (5-{1-hydroxy-3-oxo-2-[(1R)-1-phenylpropyl]-2,3-dihydro-1H-isoindol-1-yl}-1H-benzimidazol-2-yl)carbamate]
[1]
  IC50: 0.1 to 1 µM
[2]
  IC50: 0.1 to 1 µM

## COC(=O)Nc1nc2cc(C3(O)c4ccccc4C(=O)N3c3ccccc3OC(F)(F)F)ccc2[nH]1 (stereo not drawn) [Entry 183, methyl [5-(1-hydroxy-3-oxo-2-{2-[(trifluoromethyl)oxy]phenyl}-2,3-dihydro-1H-isoindol-1-yl)-1H-benzimidazol-2-yl]carbamate]
[1]
  IC50: 0.1 to 1 µM
[2]
  IC50: < 0.1 µM

## COC(=O)Nc1nc2cc(C3(O)c4ccccc4C(=O)N3c3cccc(F)c3F)ccc2[nH]1 (stereo not drawn) [Entry 184, methyl {5-[2-(2,3-difluorophenyl)-1-hydroxy-3-oxo-2,3-dihydro-1H-isoindol-1-yl]-1H-benzimidazol-2-yl}carbamate]
[1]
  IC50: < 0.1 µM
[2]
  IC50: < 0.1 µM

## O=C(Nc1nc2cc(C3(O)c4ccccc4C(=O)N3Cc3ccccc3)ccc2[nH]1)OC1CCCCC1 (stereo not drawn) [Entry 185, cyclohexyl {5-[1-hydroxy-3-oxo-2-(phenylmethyl)-2,3-dihydro-1H-isoindol-1-yl]-1H-benzimidazol-2-yl}carbamate]
[1]
  IC50: 0.1 to 1 µM
[2]
  IC50: 0.1 to 1 µM

## O=C(Nc1nc2cc(C3(O)c4ccccc4C(=O)N3Cc3ccccc3)ccc2[nH]1)OCC1CCCO1 (stereo not drawn) [Entry 186, tetrahydrofuran-2-ylmethyl {5-[1-hydroxy-3-oxo-2-(phenylmethyl)-2,3-dihydro-1H-isoindol-1-yl]-1H-benzimidazol-2-yl}carbamate]
[1]
  IC50: < 0.1 µM
[2]
  IC50: < 0.1 µM

## O=C(Nc1nc2cc(C3(O)c4ccccc4C(=O)N3Cc3ccccc3)ccc2[nH]1)OCC1CC1 (stereo not drawn) [Entry 187, cyclopropylmethyl {5-[1-hydroxy-3-oxo-2-(phenylmethyl)-2,3-dihydro-1H-isoindol-1-yl]-1H-benzimidazol-2-yl}carbamate]
[1]
  IC50: < 0.1 µM
[2]
  IC50: < 0.1 µM

## O=C(Nc1nc2cc(C3(O)c4ccccc4C(=O)N3Cc3ccccc3)ccc2[nH]1)N1CCOCC1 (stereo not drawn) [Entry 188, N-{5-[1-hydroxy-3-oxo-2-(phenylmethyl)-2,3-dihydro-1H-isoindol-1-yl]-1H-benzimidazol-2-yl}morpholine-4-carboxamide]
[1]
  IC50: 0.1 to 1 µM
[2]
  IC50: 1 to 10 µM

## COC(=O)Nc1nc2cc(C3(O)c4ccccc4C(=O)N3CC3CCCC3)ccc2[nH]1 (stereo not drawn) [Entry 189, methyl {5-[2-(cyclopentylmethyl)-1-hydroxy-3-oxo-2,3-dihydro-1H-isoindol-1-yl]-1H-benzimidazol-2-yl}carbamate]
[1]
  IC50: < 0.1 µM
[2]
  IC50: < 0.1 µM

## COC(=O)Nc1nc2cc(C3(O)c4ccccc4C(=O)N3c3cccc(C)c3C)ccc2[nH]1 (stereo not drawn) [Entry 190, methyl {5-[2-(2,3-dimethylphenyl)-1-hydroxy-3-oxo-2,3-dihydro-1H-isoindol-1-yl]-1H-benzimidazol-2-yl}carbamate]
[1]
  IC50: < 0.1 µM
[2]
  IC50: < 0.1 µM

## COC(=O)Nc1nc2cc(C3(O)c4ccccc4C(=O)N3C3CCc4ccccc43)ccc2[nH]1 (stereo not drawn) [Entry 191, methyl {5-[2-(2,3-dihydro-1H-inden-1-yl)-1-hydroxy-3-oxo-2,3-dihydro-1H-isoindol-1-yl]-1H-benzimidazol-2-yl}carbamate]
[1]
  IC50: < 0.1 µM
[2]
  IC50: < 0.1 µM

## COC(=O)Nc1nc2cc(C3(O)c4ccccc4C(=O)N3[C@H](C(=O)OC)C3CCCCC3)ccc2[nH]1 (stereo partly drawn) [Entry 192, methyl (2S)-cyclohexyl[1-hydroxy-1-(2-{[(methyloxy)carbonyl]amino}-1H-benzimidazol-5-yl)-3-oxo-1,3-dihydro-2H-isoindol-2-yl]ethanoate]
[1]
  IC50: 1 to 10 µM
[2]
  IC50: 1 to 10 µM

## COC(=O)Nc1nc2cc(C3(O)c4ccccc4C(=O)N3c3c(F)cccc3F)ccc2[nH]1 (stereo not drawn) [Entry 193, methyl {5-[2-(2,6-difluorophenyl)-1-hydroxy-3-oxo-2,3-dihydro-1H-isoindol-1-yl]-1H-benzimidazol-2-yl}carbamate]
[1]
  IC50: < 0.1 µM
[2]
  IC50: < 0.1 µM

## COC(=O)Nc1nc2cc(C3(O)c4ccccc4C(=O)N3c3ccc(F)c(Cl)c3)ccc2[nH]1 (stereo not drawn) [Entry 194, methyl {5-[2-(3-chloro-4-fluorophenyl)-1-hydroxy-3-oxo-2,3-dihydro-1H-isoindol-1-yl]-1H-benzimidazol-2-yl}carbamate]
[1]
  IC50: < 0.1 µM
[2]
  IC50: < 0.1 µM
